Measurements reported in patent US20230181601A1, “TREATMENT OF NON-ALCOHOLIC STEATOHEPATITIS (NASH)” (DURECT CORPORATION, priority 2020, published 2023).

Experiments:
[1] = Phase 1b study in NASH patients: pharmacokinetics; assay type: in vivo, human; conditions: for CL/F / AUC(0-t) / Cmax / Tmax / half-life: NASH patients, mean (standard deviation); for AUC(0-t) / Cmax / Tmax / half-life: both sexes, human, plasma
Text: A total of 63 patients completed the study with 21 patients per dose group (completion of MRI-PDFF measurement). […] Subjects provided written informed consent to participate in the study • 2. Males or females subjects 18 years or older, at the time of signing informed consent • 3. BMI 20-45 kg/m^2 • 4. […] Value of Fibroscan® ≥7 kPa • OR • b. MRE≥2.75 kPa • *Clinical diagnosis of NASH was defined in this clinical trial as the existence of one or more of the following risk factors for NASH, namely: • a. Type 2 diabetes or elevated fasting blood sugar • b. Abdominal obesity • c. Elevated lipid levels, especially elevated levels of serum triglycerides • d. Hypertension, or • e. Low levels of HDL cholesterol • 5. For serum transaminases, ALT concentration for all patients at the time of screening was >1 and <5 times upper limit of normal (ULN) of the central lab in the absence of another cause of liver disease. If a patient had lab records in the past 6 months, ALT concentrations were <20 U/L female and <30 U/L male. AST concentration for all patients at the time of screening was <5x ULN • 6. […] Platelet counts ≥120,000/mm^3 • 8. Female subjects were eligible for the study if they met the following criteria: • Are not pregnant or nursing • Women of child-bearing potential (defined as females who are not surgically sterile or who are not over the age of 52 and amenorrheic for at least 12 months) must utilize appropriate birth control throughout the study duration. Acceptable methods that may be used are abstinence, birth control pills (“The Pill”) or patch, diaphragm, IUD (coil), vaginal ring, condom, surgical sterilization or progestin implant or injection, or sexual activity limited to a sterile (e.g., vasectomized) male partner • 9. Male participants agreed to consistently and correctly use a condom in combination with one of the above methods of birth control from enrolment to 30 days after the last dose of study medication • 10. Participants were able to comply with dosing and able to complete the study schedule of assessments
The pharmacokinetics of administered 25HC3S was determined.

[2] = system: patients with Non-Alcoholic Steatohepatitis (NASH); assay: Phase 1b study in NASH patients: safety; assay type: in vivo, human; conditions: all three doses (50 mg, 150 mg, 600 mg daily), 4 weeks oral
Text: A total of 63 patients completed the study with 21 patients per dose group (completion of MRI-PDFF measurement). […] Subjects provided written informed consent to participate in the study • 2. Males or females subjects 18 years or older, at the time of signing informed consent • 3. BMI 20-45 kg/m^2 • 4. […] Value of Fibroscan® ≥7 kPa • OR • b. MRE≥2.75 kPa • *Clinical diagnosis of NASH was defined in this clinical trial as the existence of one or more of the following risk factors for NASH, namely: • a. Type 2 diabetes or elevated fasting blood sugar • b. Abdominal obesity • c. Elevated lipid levels, especially elevated levels of serum triglycerides • d. Hypertension, or • e. Low levels of HDL cholesterol • 5. For serum transaminases, ALT concentration for all patients at the time of screening was >1 and <5 times upper limit of normal (ULN) of the central lab in the absence of another cause of liver disease. If a patient had lab records in the past 6 months, ALT concentrations were <20 U/L female and <30 U/L male. AST concentration for all patients at the time of screening was <5x ULN • 6. […] Platelet counts ≥120,000/mm^3 • 8. […]

[3] = Single oral dose safety and pharmacokinetic study in NASH and healthy subjects; assay type: in vivo, human; conditions: for Cmax: read-out: Cmax
Protocol: The present Example was a randomized, dose ranging, single dose safety and pharmacokinetic study of 25HC3S administered to subjects with NASH and control healthy subjects. […] For each cohort, 10 subjects with NASH were enrolled which were further classified into cirrhotic and non-cirrhotic. Each subject received only one dose of study treatment. The second cohort was dosed after a review of safety and tolerability data from Cohort 1.

[4] = Metabolite profiling of plasma, urine and feces after intravenous dose; assay type: in vivo, male Sprague Dawley rats; conditions: intravenous 10 mg/kg
Protocol: Nine male Sprague Dawley rats (Group 1) were designated for the pharmacokinetic phase, 3 male Sprague Dawley rats (Group 2) for the excretion mass balance phase, and 7 male Sprague Dawley rats (Group 3) and 9 male Long Evans rats (Group 4) for the tissue distribution phase. All animals received a single intravenous dose of [^14C]-25HC3S at 10 mg/kg and a target radioactivity of 225 μCi/kg. Blood samples were collected from all Group 1 animals at approximately 0.083, 0.25, 0.5, 1, 2, 4, 8, 12, 24, 48, and 72 hours post-dose. Urine and feces were collected from all Group 2 animals periodically through 168 hours post-dose. […] Following blood collection, animals were euthanized by CO2 inhalation and carcasses frozen in a dry ice/hexane bath for processing by quantitative whole body autoradiography. Whole blood, plasma, urine, feces, cage rinse, and cage wash were analyzed for total radioactivity by liquid scintillation counting.

NASH patients = conditions: 50 mg vs 200 mg oral; cited from earlier work

C[C@H](CCCC(C)(C)O)[C@H]1CC[C@H]2[C@@H]3CC=C4C[C@@H](OS(=O)(=O)O)CC[C@]4(C)[C@H]3CC[C@]12C [25HC3S, 5-cholesten-3,25-diol, 3-sulfate]
CL/F ([1]; 50 mg QD oral): 150.6 (51.5) L/h
CL/F ([1]; 150 mg QD oral): 176.6 (80.5) L/h
CL/F ([1]; 300 mg BID oral): 166.2 (60.4) L/h
AUC(0-t) ([1]; 50 mg QD oral): 340 ng·h/mL
Cmax ([1]; 50 mg QD oral): 79.1 ng/mL
Tmax ([1]; 50 mg QD oral): 2.4 h
half-life ([1]; 50 mg QD oral): 2.7 h
AUC(0-t) ([1]; 150 mg QD oral): 1040 ng·h/mL
Cmax ([1]; 150 mg QD oral): 274 ng/mL
Tmax ([1]; 150 mg QD oral): 2 h
half-life ([1]; 150 mg QD oral): 2.7 h
AUC(0-t) ([1]; 300 mg BID oral): 2140 ng·h/mL
Cmax ([1]; 300 mg BID oral): 430 ng/mL
Tmax ([1]; 300 mg BID oral): 2.3 h
half-life ([1]; 300 mg BID oral): 2.4 h
PK parameters after repeat dosing ([1]; repeat vs single dose): comparable to those after a single dose and were dose dependent
tolerability, drug related serious adverse events [2]: well tolerated at all three doses with no drug related serious adverse events observed
difference in pharmacokinetics between healthy subjects and NASH patients ([3]; 50 mg and 200 mg single oral dose): no clear difference in pharmacokinetics
CL/F ([3]; 200 mg single oral dose, Healthy, Mean): 171.25 ± 28.60 L/h
time post-dose up to which plasma levels were detectable ([3]; Cohort 1 (50 mg) healthy subjects): up to 12 hours
AUC0-inf, higher in NASH than healthy subjects ([3]; Cohort 2 (200 mg)): approximately 20%
geometric mean AUC0-12 and AUC0-last, higher in NASH than healthy subjects ([3]; Cohort 2 (200 mg)): approximately 30%
time post-dose up to which plasma levels were detectable ([3]; Cohort 2 (200 mg) healthy subjects): up to 16 hours
increase of geometric mean Cmax in NASH over healthy subjects ([3]; Cohorts 1 and 2): 18-24%
exposure (AUC parameters), potential increasing trends in NASH subjects ([3]; NASH vs healthy): up to 31%
half-life ([3]; human, plasma, oral, across both healthy and NASH subject groups, 50 mg and 200 mg, read-out: T1/2, range of mean values): 1.67 to 2.51 h
Cmax ([3]; human, plasma, 50 mg single oral dose, Healthy, Mean): 94 ± 27.3 ng/mL
Cmax ([3]; human, plasma, 200 mg single oral dose, Healthy, Mean): 260 ± 54.8 ng/mL
% of dose in feces ([4]; pools 0 to 48 hours postdose): 2 % of dose
share of the exposure (AUC) to 25HC3S related radioactivity in plasma ([4]; up to 1 hour postdose): approximately 54%
dose dependence of biological responses (NASH patients): no dose-dependent changes of biological responses
